# Reference: patent US20260315436A1, “METHOD OF TREATING DISORDERS WITH SURF1 MALFUNCTION” (Cure Mito Foundation, priority 2023, published 2026)
# Columns and labels:
# [1] = test system: GM28010 SURF1 mutant fibroblasts; assay: Seahorse mitochondrial stress test, fibroblast cell line GM28010 (Experiment 2, combinations and single compounds); type: cell-based, human; conditions: 48 h
# Procedure: (§1) In order to evaluate selected compounds' impact on mitochondrial function in patient-derived fibroblasts compared to controls, three seahorse assays were conducted, Exp. 1: Fibroblast cell line GM28010—single compounds; Exp. 2. Fibroblast cell line GM28010—combination of compounds+ Single compounds; and Exp. 3: Fibroblast cell line GM28012—single compounds. Seahorse XF24 Extracellular Flux Analyzers continuously measure oxygen concentration and proton flux in the cell supernatant over time (Wu et al., 2007). The oxygen concentration and proton flux measurements are converted in OCR and ECAR values. This enables a direct quantification of mitochondrial respiration and glycolysis. The aim of the seahorse assays is to evaluate the impact of selected compounds on mitochondrial function in patient-derived fibroblasts compared to controls. Compounds used in the seahorse assays include posacanazole, sertaconazole, glabridin, zinglibroside (ginsenoside Z R1), AM281, cysteamine bitrartate, PF-06447475, losmapimod, telepravir, miltefosine, incyclinide, poziotinib, and methylene blue.
# (§2) • Basal Oxygen Consumption (OCR): This reflects the cellular oxygen usage under basal conditions, encompassing both energy production (ATP turnover) and background oxygen leak from the mitochondria. • Oligomycin Injection: Oligomycin is a compound that inhibits ATP synthase, an enzyme crucial for ATP production within mitochondria. • Oligomycin-resistant Respiration: After oligomycin injection, minimal oxygen consumption persists, representing non-ATP linked oxygen leak from the mitochondria, often termed proton leak. • ATP-linked Respiration: This value is derived by subtracting the oligomycin-resistant respiration from the basal OCR. It signifies the oxygen consumption specifically linked to ATP production through mitochondrial oxidative phosphorylation. • Mitochondrial Bioenergetic Efficiency: This parameter reflects the percentage decrease in oxygen consumption observed after oligomycin injection, indicating the mitochondria's efficiency in utilizing oxygen for ATP generation. • FCCP Injection: FCCP is a chemical that disrupts the link between mitochondrial electron transport and ATP production. • Maximal Respiration: Following FCCP injection, the highest oxygen consumption rate is measured, representing the maximum capacity of the mitochondria to utilize oxygen for respiration. • Spare Respiratory Capacity: This parameter is calculated by subtracting basal respiration from maximal respiration.
# GM28010 is a primary human fibroblast cell line that was obtained from patients with SURF1 Leigh syndrome. It was purchased from the Coriell Cell Repositories (Camden, N.J., repository number GM28010).
# GM00038 is a primary human fibroblast cell line purchased from the Coriell Cell Repositories (Camden, N.J.; repository number GM00038). GM00038 was used as a healthy control.
# (§3) Fibroblasts were grown in glucose according to recommendation. Cells were plated in XF96 plates in culture medium and plated at 10,000 cells/well. The day after plating, cells were treated with compounds. Treatments completed in glucose medium Compounds were tested at for 48 hours. The compounds were incubated at (37 C, 5% CO2) until the day of the experiment.
# The fibroblasts were run at passage numbers: GM28010 SURF1 Fibroblasts P5.
# The Assay Medium was 10 mM glucose or galactose DMEM supplemented with 2 mM glutamine and 1 mM pyruvate. Injection Ports for basal glucose: Port A: 2 μM oligomycin; Port B: 2.5 μM FCCP; Port C: 4 μM FCCP; and Port D: 2 μM rotenone and antimycin A. The Data were normalized to cell number per well after the run. The Hoechst-stained nuclei were counted with a Operetta High-Content Imager.
# [2] = test system: GM28012 SURF1 fibroblasts; assay: Seahorse mitochondrial stress test, fibroblast cell line GM28012 (Experiment 3, single compounds); type: cell-based, human; conditions: 48 h; for ATP-linked respiration / basal respiration: both glucose and galactose
# Procedure: as §1, §2
# GM28010 primary human fibroblasts obtained from patients with SURF1 Leigh syndrome were purchased from the Coriell Cell Repositories (Camden, N.J.; repository number GM28010).
# GM00038 primary human fibroblasts purchased from the Coriell Cell Repositories (Camden, N.J., repository number GM00038) and were used as a healthy control.
# as §3, with “plating, the” for “plating,”, “with the” for “with”, “The treatments” for “Treatments”, “and galactose medium. The compounds” for “Compounds”, “experiment. The fibroblasts were run at passage numbers: GM28012 SURF1 Fibroblasts P5.” for “experiment.”
# The assay medium was 10 mM glucose or galactose DMEM supplemented with 2 mM glutamine and 1 mM pyruvate. Injection Ports for basal glucose: Port A: 2 μM oligomycin; Port B: 2.5 μM FCCP; Port C: 4 μM FCCP; and Port D: 2 μM rotenone and antimycin A.
# The data were normalized to cell number per well after the run. The Hoechst-stained nuclei were counted with a Operetta High-Content Imager.
# [3] = test system: shy1Δ knockout mutants; assay: Yeast drug repurposing screen, shy1Δ knockout mutants (haploid/diploid not separated); type: cell-based; conditions: FIG. 12, inactive statins; test not named
# From the text: An aim of the present disclosure is to identify SURF1 Leigh Syndrome drug repurposing clinical candidates using a rapid turnaround, multi-species phenotypic screening approach that starts with the development and phenotypic characterization of genetically personalized yeast strains—“patient avatars”—and culminates in a drug repurposing screen, a process previously published for PMM2-CDG in Lao et al., 2019 Feb 7; 9(2):413423. […] Slow growth can be rescued in a pathway-agnostic high-throughput chemical suppressor screen. As in the case of PMM2-CDG, the SURF1 yeast ortholog, gene identifier SHY1, is essential undergrowth conditions that require functional mitochondria, i.e., respiration. The yeast species Yarrowia lipolytica was used for the screen since it is an obligate aerobe (requires oxygen to grow), contains a fully functional electron transport chain, and has already been prototyped in a drug repurposing screen (Perlstein 2020). A 384-well-plate growth-based assay with appropriate positive and negative controls was designed and optimized for a drug repurposing screen (~5,000 compounds). The drug repurposing screen for mitochondrial diseases involving complex IV deficiency is described herein. A general yeast screening method was discussed in Perlstein, Drug repurposing for mitochondrial diseases using a pharmacological model of complex I deficiency in the yeast Yarrowia lipolytica, bioRxiv, (2020), see https://www.biorxiv.org/content/10.1101/2020.01.08.899666v1.
# Yeast cells completely lacking SURF1 are unable to grow in conditions that require their mitochondria to produce energy. Knocking out the SURF1 ortholog in yeast—SHY1—results in loss of the ability of the knockout mutant to grow on a non-fermentable carbon source, e.g., lactate or glycerol, that requires functional mitochondria. A shy1Δ knockout mutant is incapable of growing on YEPG, or yeast media spiked with ethanol and glycerol as the sole non-fermentable carbon sources.
# A unique hit signature was identified using the pilot screen of ~2,500 known drugs. A drug repurposing screen was performed. BY4741 and BY4742 are wildtype haploid controls, BY4743 is the wildtype diploid control. PY14 and PY15 are haploid shy1Δ knockout mutants of each yeast mating type. PY16 is the diploid SHY1/shy1Δ heterozygous mutant, which grows just like BY4743. PY17 is the diploid homozygous shy1Δ knockout mutant. FIG. 20.
# FIG. 22, FIG. 23, FIG. 24A, FIG. 24B. It is thought that the hits act by stabilizing cytochrome c oxidase.
# The discernible red triangles are the hits; the larger the triangles, the more statistically significant the result. […] FIG. 25A and FIG. 25B. Haploid and diploid SURF1 deficient mutants were screened. The positive control is a wildtype (unmutated) yeast strain. […]
# [4] = combinations at 1 μM losmapimod, 10 μM Ginsenoside Z R1, 10 μM PF-06447475, single compounds 1, 5, 10 μM
# [5] = listed as Cysteamine Bitrartate
smiles,measurement,setting,value
"CN(C)c1ccc2nc3ccc(=[N+](C)C)cc-3sc2c1 [Methylene Blue, methylene blue]",ATP production rate through OXPHOS,[1]; [4],dose-dependent decrease in ATP production through OXPHOS
same,respiration (oxygen consumption rate),[1]; [4],decreased oxygen consumption rates
same,total ATP production rates,[1]; [4],maintain ATP production rates
same,ATP production through glycolysis,"[1]; combinations at 1 μM losmapimod, 10 μM Ginsenoside Z R1, single compounds 1, 5, 10 μM",increase in ATP production through glycolysis
NCCS [cysteamine bitartrate],ATP production through OXPHOS,[2],Dose-dependent increase
same,ATP production through glycolysis,[2],decrease ATP production through glycolysis
same,total ATP production rate,[2],Dose-dependent increase
same,ATP-linked respiration,[2],increased basal respiration and ATP-Linked respiration in a dose-dependent manner
same,basal respiration,[2],increased basal respiration and ATP-Linked respiration in a dose-dependent manner
same,ATP-linked respiration,[2]; [5],↑basal respiration and ATP-
same,basal respiration,[2]; [5],↑basal respiration and ATP-
same,glycolysis,[2]; glucose-cultured cells,dose-dependent decrease
same,maximal respiration,[2]; glucose-cultured cells,dose-dependent decrease
same,toxicity,[2]; glucose-cultured cells,some toxicity
same,ATP production through glycolysis,[2]; [5],conditions. ↓ATP production
same,respiration (oxygen consumption rate),[1]; [4],did not alter oxygen consumption rates
same,ATP production rate through glycolysis,[1]; higher concentrations,decreased
CC[C@H](C)C(=O)O[C@H]1C[C@@H](C)C=C2C=C[C@H](C)[C@H](CC[C@@H]3C[C@@H](O)CC(=O)O3)[C@H]21 [lovastatin],activity of statins,[3],inactive
CC[C@H](C)C(=O)O[C@H]1CCC=C2C=C[C@H](C)[C@H](CC[C@@H]3C[C@@H](O)CC(=O)O3)[C@H]21 [mevastatin],activity of statins,[3],inactive
CC[C@H](C)C(=O)O[C@H]1C[C@H](O)C=C2C=C[C@H](C)[C@H](CC[C@@H](O)C[C@@H](O)CC(=O)O)[C@H]21 [pravastatin],activity of statins,[3],inactive
CCC(C)(C)C(=O)O[C@H]1C[C@@H](C)C=C2C=C[C@H](C)[C@H](CC[C@@H]3C[C@@H](O)CC(=O)O3)[C@H]21 [simvastatin],activity of statins,[3],inactive
